The target in the first assay is T1, USP7 (Homo sapiens, UniProt Q93009).
T1 construct: USP7, construct USP7 (208-1102) 6*His, Viva Biotech; 6xHis (C); purchased Viva Biotech
T1 sequence (Q93009 208-1102): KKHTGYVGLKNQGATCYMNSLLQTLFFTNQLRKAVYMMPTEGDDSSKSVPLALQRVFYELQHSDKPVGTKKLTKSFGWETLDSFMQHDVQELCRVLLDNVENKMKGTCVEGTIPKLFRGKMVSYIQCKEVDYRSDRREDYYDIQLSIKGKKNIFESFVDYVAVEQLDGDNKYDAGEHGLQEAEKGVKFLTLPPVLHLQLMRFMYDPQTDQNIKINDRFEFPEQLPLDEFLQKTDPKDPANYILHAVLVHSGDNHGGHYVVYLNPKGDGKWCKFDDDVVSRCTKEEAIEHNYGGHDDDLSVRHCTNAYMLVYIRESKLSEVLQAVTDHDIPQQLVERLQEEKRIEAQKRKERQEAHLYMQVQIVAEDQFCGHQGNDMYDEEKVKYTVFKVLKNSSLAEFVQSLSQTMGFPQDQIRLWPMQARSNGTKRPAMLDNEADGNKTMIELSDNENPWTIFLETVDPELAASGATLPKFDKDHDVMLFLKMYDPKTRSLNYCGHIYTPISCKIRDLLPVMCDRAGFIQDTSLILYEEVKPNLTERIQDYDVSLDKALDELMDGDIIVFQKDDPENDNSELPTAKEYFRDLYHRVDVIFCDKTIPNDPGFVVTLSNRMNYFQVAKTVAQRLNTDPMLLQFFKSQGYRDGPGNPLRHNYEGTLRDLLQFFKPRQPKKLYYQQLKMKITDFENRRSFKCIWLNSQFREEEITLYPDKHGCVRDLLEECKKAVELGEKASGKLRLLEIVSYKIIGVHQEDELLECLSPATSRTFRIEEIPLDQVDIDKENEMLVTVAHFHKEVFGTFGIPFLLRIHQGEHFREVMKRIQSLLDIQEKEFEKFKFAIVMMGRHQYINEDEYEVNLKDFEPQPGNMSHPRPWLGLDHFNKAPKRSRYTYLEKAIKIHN
In words: USP7 Assay A (Ubitquin-Rhodamine 110 Assay). The format is biochemical. Conditions: USP7 activity in USP7 assay A and B (table does not say which assay per compound); read-out: USP7_IC50. An outline of the steps:
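Ub-Rh110 cleavage in 20 mM Tris-HCl pH 8.0 with 1 mM GSH, 0.03% BGG, 0.01% Triton X-100; compound preincubated with enzyme 30 min before substrate.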
In the case of `O=C(C1CCC(OC2CCOCC2)CC1)N1CCC(O)(Cn2cnc3c(cnn3-c3ccc(F)cc3)c2=O)CC1` (stereo not shown) [Compound I-926], the IC50 lay in the range of 0.2 to 1 µM. For the compound `O=C(c1cnn(C2CC2)c1)N1CCC(O)(Cn2cnc3c(cnn3-c3ccc(F)cc3)c2=O)CC1` [Compound I-726], the IC50 was 0.2 to 1 µM. For the compound `O=C(c1cnc(C2CC2)o1)N1CCC(O)(Cn2cnc3c(cnn3-c3ccc(-n4cc(Cl)cn4)cc3)c2=O)CC1` [Compound I-1686], the IC50 was less than 0.2 µM. On the same count and under the same terms, the value for `CC1(C(=O)N2CCC(O)(Cn3cnc4c(cnn4-c4cccc(N5CC(C6CCOCC6)C5)c4)c3=O)CC2)CC1` [Compound I-1732] was 0.2 to 1 µM. On the same count and under the same terms, the value for `O=C(C1CCC(OC(F)F)CC1)N1CCC(O)(Cn2cnc3c(cnn3-c3ccc(F)cc3)c2=O)CC1` (stereo not shown) [Compound I-1112] was 1 to 10 µM. On the same count and under the same terms, the value for `Cc1ncc(C(=O)N2CCC(O)(Cn3cnc4c(cnn4-c4ccc(-n5cc(CO)cn5)cc4)c3=O)CC2)o1` [Compound I-1687] was less than 0.2 µM. As to `O=C(c1ncoc1Cc1ccccc1)N1CCC(O)(Cn2cnc3c(cnn3-c3ccc(F)cc3)c2=O)CC1` [Compound I-557], the IC50 lay in the range of 0.2 to 1 µM.

On to `Cc1cc(OC2CCC(C(=O)N3CCC(O)(Cn4cnc5c(cnn5-c5ccc(F)cc5)c4=O)CC3)CC2)no1` (stereo not shown) [Compound I-756], for which the IC50 fell in the range of 0.2 to 1 µM. The same measure, in the same setting: the value for `O=C(c1ccc(N2CCN3CCCC3C2)cc1)N1CCC(O)(Cn2cnc3c(cnn3-c3ccc(F)cc3)c2=O)CC1` (stereo not shown) [Compound I-1735] was 1 to 10 µM; that for `CN1Cc2cn(-c3ccc(C(=O)N4CCC(O)(Cn5cnc6c(cnn6-c6ccc(F)cc6)c5=O)CC4)cc3)nc2C1` [Compound I-1001] was 1 to 10 µM; that for `CN1CCN(c2cccc(-n3ncc4c(=O)n(CC5(O)CCN(C(=O)C[C@H](C(F)F)n6cccn6)CC5)cnc43)c2)CC1` [Compound I-829] was less than 0.2 µM. In the case of `CC(=O)NC1CCC(C(=O)N2CCC(O)(Cn3cnc4c(cnn4-c4ccc(F)cc4)c3=O)CC2)CC1` (stereo not shown) [Compound I-924], the IC50 lay within 1 to 10 µM.

As to `Cc1ncc(C(=O)N2CCC(O)(Cn3cnc4c(cnn4-c4ccc(C5CC5)cc4)c3=O)CC2)o1` [Compound I-799], the IC50 was 0.2 to 1 µM. Same read-out and setting: then `O=C(OCCCN1CCCC1)N1CCC(O)(Cn2cnc3c(cnn3-c3ccc(F)cc3)c2=O)CC1` [Compound I-486, 3-(Pyrrolidin-1-yl)propyl 4-((1-(4-fluorophenyl)-4-oxo-1,4-dihydro-5H-pyrazolo[3,4-d]pyrimidin-5-yl)methyl)-4-hydroxypiperidine-1-carboxylate], with 1 to 10 µM. Same read-out and setting: then `O=C(c1ccc(F)cc1)N1CCC(O)(C(CO)n2cnc3c(cnn3-c3ccc(F)cc3)c2=O)CC1` (stereo not shown) [Compound I-720], with 1 to 10 µM; and `O=C(C1CCC(Oc2ccc(F)cn2)CC1)N1CCC(O)(Cn2cnc3c(cnn3-c3ccc(F)cc3)c2=O)CC1` (stereo not shown) [Compound I-737], with less than 0.2 µM; and `O=C(c1cn[nH]c1Cc1ccccc1)N1CCC(O)(Cn2cnc3c(cnn3-c3ccc(F)cc3)c2=O)CC1` [Compound I-603], with less than 0.2 µM.

For `C[C@@H]1CN(c2ccc(-n3ncc4c(=O)n(CC5(O)CCN(C(=O)C6(C)CC6)CC5)cnc43)cc2)C[C@H](C)N1C` [Compound I-1638], the IC50 is less than 0.2 µM. Same read-out and setting: the value for `COc1ccc(OC2CCC(C(=O)N3CCC(O)(Cn4cnc5c(cnn5-c5ccccc5)c4=O)CC3)CC2)nc1` (stereo not shown) [Compound I-1020] was 0.2 to 1 µM; that for `O=C(c1ccc(-c2cnn3c2OCCC3)cc1)N1CCC(O)(Cn2cnc3c(cnn3-c3ccc(F)cc3)c2=O)CC1` [Compound I-551] was 0.2 to 1 µM. Same read-out and setting: the value for `O=C(C[C@@H](C(F)F)n1cccn1)N1CCC(O)(Cn2cnc3c(cnn3-c3ccc(Cl)cc3)c2=O)CC1` [Compound I-1132] was 0.2 to 1 µM; that for `Cc1cn(-c2ccc(-n3ncc4c(=O)n(CC5(O)CCN(C(=O)c6ccc(F)cc6)CC5)cnc43)cc2)cn1` [Compound I-987] was 1 to 10 µM. Same read-out and setting: the value for `Cn1ccc(OC2CCC(C(=O)N3CCC(O)(Cn4cnc5c(cnn5-c5ccc(F)cc5)c4=O)CC3)CC2)n1` (stereo not shown) [Compound I-754] was 0.2 to 1 µM. Consider `C[C@H]1CN(c2ccc(-n3ncc4c(=O)n(CC5(O)CCN(C(=O)C6(C)CC6)CC5)cnc43)cc2)CCN1C` [Compound I-1639], for which the IC50 is less than 0.2 µM. Regarding `O=C(C1CCc2cn[nH]c2C1)N1CCC(O)(Cn2cnc3c(cnn3-c3ccc(F)cc3)c2=O)CC1` (stereo not shown) [Compound I-724], the IC50 was 0.2 to 1 µM. For `O=C(C1CC1)N1CCC(O)(Cn2cnc3c(cnn3-c3ccc(-n4cc(OCCO)cn4)cc3)c2=O)CC1` [Compound I-977], the IC50 lay in the range of 1 to 10 µM. For the compound `CN1CCN(c2cccc(-n3ccc4c(=O)n(CC5(O)CCN(C(=O)C[C@@H](C(F)F)n6cccn6)CC5)cnc43)c2)CC1` [Compound I-793], the IC50 is less than 0.2 µM. On the same count and under the same terms, then `CNC1CCN(c2ccc(-c3ccc(-n4ncc5c(=O)n(CC6(O)CCN(C(=O)C7CC7)CC6)cnc54)cc3)cn2)C1` (stereo not shown) [Compound I-685], with less than 0.2 µM. With `Cn1ncc2c(=O)n(CC3(O)CCN(C(=O)CC(C(F)F)n4ccc(F)n4)CC3)cnc21` (stereo not shown) [Compound I-1753], the IC50 fell in the range of 0.2 to 1 µM.

The assay is the same for the next values; noted with them: USP7 assay A and B (table does not say which assay per compound); read-out: USP7_IC50.
With `CN1CCN(c2ccc(-n3ncc4c(=O)n(CC5(O)CCN(C(=O)C6CC6)CC5)cnc43)cc2Cl)CC1` [Compound I-701], the IC50 lay in the range of 1 to 10 µM.

As for `O=C(c1ccc(C(F)(F)F)nc1)N1CCC(O)(Cn2cnc3c(cnn3-c3ccc(F)cc3)c2=O)CC1` [Compound I-422], the IC50 was more than 10 µM. Still for that read-out and setting: the value for `O=C(C1CC1)N1CCC(O)(Cn2cnc3c(cnn3-c3ccc(OC4CCOCC4)cc3)c2=O)CC1` [Compound I-1667] was 1 to 10 µM; that for `NCc1cccc(C(=O)N2CCC(O)(Cn3cnc4c(cnn4-c4ccccc4)c3=O)CC2)c1` [Compound I-20] was 1 to 10 µM. On the same count and under the same terms, the value for `Cc1ccc(-n2ncc3c(=O)n(CC4(O)CCN(C(=O)C[C@H](C(F)F)n5cccn5)CC4)cnc32)cc1` [Compound I-1060] was less than 0.2 µM. Consider `Cc1ccc(-n2ncc3c(=O)n(CC4(O)CCN(C(=O)C[C@@H](C(F)F)n5cccn5)CC4)cnc32)cc1` [Compound I-1061], for which the IC50 fell in the range of 1 to 10 µM. The same measure, in the same setting: the value for `NC1(c2cccc(-c3ccc(-n4ncc5c(=O)n(CC6(O)CCN(C(=O)C7CC7)CC6)cnc54)cc3)c2)COC1` [Compound I-691] was 1 to 10 µM; that for `C[C@@H](CC(=O)N1CCC(O)(Cn2cnc3c(cnn3-c3ccc(F)cc3)c2=O)CC1)n1cc2c(n1)CCC2` (single isomer, unassigned) [Compound I-519] was more than 10 µM. Still for that read-out and setting: the value for `CN(C)C(=O)Nc1ccc(-n2ncc3c(=O)n(CC4(O)CCN(C(=O)c5ccc(F)cc5)CC4)cnc32)cc1` [Compound I-1576] was 1 to 10 µM. The same measure, in the same setting: then `CN(C)CCNC(=O)c1ccc(-n2ncc3c(=O)n(CC4(O)CCN(C(=O)C5CC5)CC4)cnc32)cc1` [Compound I-1487], with 0.2 to 1 µM; and `O=C(C1CC1)N1CCC(O)(Cn2cnc3c(cnn3-c3ccc(-c4ccc(OC5CCNC5)cc4)cc3)c2=O)CC1` (stereo not shown) [Compound I-675], with 0.2 to 1 µM. As to `O=C(C1CC1)N1CCC(O)(Cn2cnc3c(cnn3-c3cccc(C(F)(F)F)c3)c2=O)CC1` [Compound I-34], the IC50 is more than 10 µM. Same read-out and setting: the value for `O=C(C1CC1)N1CCC(O)(Cn2cnc3c(cnn3-c3cccc(NCCN4CCOCC4)c3)c2=O)CC1` [Compound I-1194] was 1 to 10 µM.

`O=C(C1CCCCC1)N1CCC(O)(Cn2cnc3c(cnn3-c3ccccc3)c2=O)CC1` [Compound I-189]: the IC50 was in the range of 0.2 to 1 µM. On the same count and under the same terms, the value for `O=C(C1CC1)N1CCC(O)(Cn2cnc3c(cnn3-c3cccc(-c4cccc(O)c4)c3)c2=O)CC1` [Compound I-385] was 1 to 10 µM; that for `O=C(Nc1ccccc1)c1ccc(-n2ncc3c(=O)n(CC4(O)CCN(C(=O)C5CC5)CC4)cnc32)cc1` [Compound I-1490] was 1 to 10 µM; that for `CN(C)C(=O)Nc1ccc(-n2ncc3c(=O)n(CC4(O)CCN(C(=O)C5CC5)CC4)cnc32)cc1` [Compound I-492] was 1 to 10 µM. Same read-out and setting: then `O=C(c1cccc(Cl)c1)N1CCC(O)(Cn2cnc3c(cnn3-c3ccc(F)cc3)c2=O)CC1` [Compound I-303], with 1 to 10 µM; and `C#CC(=O)N(C)C1CC(C(=O)N2CCC(O)(Cn3cnc4c(cnn4-c4ccc(F)cc4)c3=O)CC2)C1` (stereo not shown) [Compound I-589], with 1 to 10 µM.

As for `CO[C@@H]1CCN(c2ccc(-n3ncc4c(=O)n(CC5(O)CCN(C(=O)N(C)C)CC5)cnc43)cc2)C1` [Compound I-1138], the IC50 was in the range of 1 to 10 µM. Take `Cc1ccc(-n2ncc3c(=O)n(CC4(O)CCN(C(=O)C[C@H](c5ccccc5)C(F)(F)F)CC4)cnc32)cc1` [Compound I-144]: the IC50 is 1 to 10 µM. Same read-out and setting: then `O=C(c1ccc(CN2CCCC2)cc1)N1CCC(O)(Cn2cnc3c(cnn3-c3ccc(F)cc3)c2=O)CC1` [Compound I-529], with 1 to 10 µM; and `CC1(O)CCN(Cc2cccc(C(=O)N3CCC(O)(Cn4cnc5c(cnn5-c5ccc(F)cc5)c4=O)CC3)c2)C1` (stereo not shown) [Compound I-601], with more than 10 µM; and `O=C(Nc1ccc(-n2ncc3c(=O)n(CC4(O)CCN(C(=O)C5CC5)CC4)cnc32)cc1)C1CC1` [Compound I-1377], with 1 to 10 µM.

As for `C=CS(=O)(=O)N[C@H](Cc1ccccc1)C(=O)N1CCC(O)(Cn2cnc3c(cnn3-c3ccccc3)c2=O)CC1` [Compound I-814], the IC50 lay within 0.2 to 1 µM.

For the compound `CN1CCCCC1COc1ccc(-n2ncc3c(=O)n(CC4(O)CCN(C(=O)c5ccc(F)cc5)CC4)cnc32)cc1` (stereo not shown) [Compound I-1313], the IC50 lay in the range of 0.2 to 1 µM. On the same count and under the same terms, the value for `CNC(=O)Nc1cccc(-n2ncc3c(=O)n(CC4(O)CCN(C(=O)C5CC5)CC4)cnc32)c1` [Compound I-507] was 1 to 10 µM; that for `O=C(C1CC1)N1CCC(O)(Cn2cnc3c(cnn3-c3ccc(N4CCC5(CCOCC5)C4)cc3)c2=O)CC1` [Compound I-1216] was 1 to 10 µM. Still for that read-out and setting: then `CS(=O)(=O)c1ccc(-n2ncc3c(=O)n(CC4(O)CCN(C(=O)C5CC5)CC4)cnc32)cc1` [Compound I-31], with 1 to 10 µM.

(Values after patent publication US9902728B2, “Pyrrolo and pyrazolopyrimidines as ubiquitin-specific protease 7 inhibitors” (Forma Therapeutics, Inc., priority 2014, dated 2018).)
